Assays:
Experiment in all cases: Temocillin MIC, agar dilution (Example 1)
Assay type in all cases: cell-based, Enterobacteriaceae
[1] = system: AmpC strains; conditions: Ex 1; temocillin alone; MIC in mg/l
Protocol: (§1) Determination of the MICs with Respect to Temocillin for a Panel of CPE Strains (Using the Agar Dilution Method)
(§2) Reaction medium: the base is a chromLD™ CPS medium (bioMérieux, ref. 43821-43829), comprising a chromogenic substrate for beta-glucuronidase, a chromogenic substrate for beta-glucosidase, a chromogenic substrate for beta-galactosidase and a substrate for deaminase. Temocillin is added to this base medium at the concentrations indicated hereinafter.
(§3) Temocillin range tested: 50-150-200-300 mg/l (disodium temocillin, Eumedica SA, Manage, Belgium).
(§4) The media are inoculated by depositing a spot: 1 μl of a microbial suspension in physiological saline at 0.5 McF, diluted to 1/10.
(§5) Incubation for 24 h at 37° C.
(§6) Reading after incubation for 24 hours. The medium with the smallest temocillin concentration on which a negative growth spot is obtained will be retained as the MIC. The spots having only 3 colonies or less or a total absence of growth were considered to be negative.

[2] = system: IMP strains; conditions: Ex 1; temocillin alone; MIC in mg/l
Protocol: as §1, §2, §3, §4, §5, §6

[3] = system: KPC strains; conditions: Ex 1; temocillin alone; MIC in mg/l
Protocol: as §1, §2, §3, §4, §5, §6

[4] = system: NDM-1 strains; conditions: Ex 1; temocillin alone; MIC in mg/l
Protocol: as §1, §2, §3, §4, §5, §6

[5] = system: Non-OXA-48 strains
Protocol: as §1, §2, §3, §4, §5, §6

[6] = system: OXA-48 strains
Protocol: as §1, §2, §3, §4, §5, §6

[7] = system: VIM strains; conditions: Ex 1; temocillin alone; MIC in mg/l
Protocol: as §1, §2, §3, §4, §5, §6

[8] = Ex 1, temocillin alone, MIC in mg/l

## CO[C@@]1(NC(=O)C(C(=O)O)c2ccsc2)C(=O)N2[C@@H](C(=O)O)C(C)(C)S[C@@H]21 (stereo partly drawn) [temocillin]
[1]
  No. of AmpC strains with MIC 150: 0
  No. of AmpC strains with MIC 200: 0
  No. of AmpC strains with MIC 300: 0
  No. of AmpC strains with MIC >300: 0
  No. of AmpC strains with MIC ≦50: 10
[2]
  No. of IMP strains with MIC 150: 0
  No. of IMP strains with MIC 200: 0
  No. of IMP strains with MIC 300: 0
  No. of IMP strains with MIC >300: 1
  No. of IMP strains with MIC ≦50: 12
[3]
  No. of KPC strains with MIC 150: 1
  No. of KPC strains with MIC 200: 0
  No. of KPC strains with MIC 300: 0
  No. of KPC strains with MIC >300: 3
  No. of KPC strains with MIC ≦50: 8
[4]
  No. of NDM-1 strains with MIC 150: 1
  No. of NDM-1 strains with MIC 200: 0
  No. of NDM-1 strains with MIC 300: 0
  No. of NDM-1 strains with MIC >300: 0
  No. of NDM-1 strains with MIC ≦50: 25
[5]; most of the non-OXA-48 strains
  MIC: ≤ 200 µg/mL
[5]; only a few non-OXA-48 strains
  MIC: > 300 µg/mL
[6]
  MIC: > 300 µg/mL
[6]; [8]
  No. of OXA-48 strains with MIC 150: 0
  No. of OXA-48 strains with MIC 200: 0
  No. of OXA-48 strains with MIC 300: 0
  No. of OXA-48 strains with MIC >300: 15
  No. of OXA-48 strains with MIC ≦50: 1
[7]
  No. of VIM strains with MIC 150: 5
  No. of VIM strains with MIC 200: 1
  No. of VIM strains with MIC 300: 0
  No. of VIM strains with MIC >300: 1
  No. of VIM strains with MIC ≦50: 9
